In one assay the test system is patients with ALS. The text has this:
Non-limiting examples of measures of clinical response include the ALS Functional Rating Scale Revised (ALSFRS-R) and respiratory vital capacity.
Stem cell reprogramming for long term disease regulation is evidenced by finding normalization of biomarkers for at least one month after the last dose in the 6-month administration procedure.
A major subset of ALS patients show evidence for ongoing inflammation that potentially contributes to disease progression.

Another assay concerns CD 34+ HSCs. To be noted: LPS-activated HSC (10 ng/mL LPS overnight), single treatment with NP001 300 μM, grown 3 days, RNAseq.
Where [1] appears, read: ALS patients with plasma CRP levels >1.13 mg/L.
Setting [2] is: clinical responders, 6-month pulse therapy, at least one month after last dose.
Setting [3] is: mechanism of action studies in patients with ALS.

Here are results for one substance from patent publication US20250114396A1, “CHLORITE USES FOR STEM CELLS” (The Regents of the University of California, priority 2023, published 2025).

Where two headings read alike, the source gives them in different places.

Description for CD 34+ HSCs: CD 34+ HSCs were isolated from normal human adult bone marrow (>95% pure) and were either stimulated by 10 ng/mL LPS overnight or control medium. NP001 was added (300 μM; equivalent to phase 2 dose in humans) to washed HSC controls and LPS-activated HSC and the cells grown for 3 days in HSC medium. RNAseq with 100 M reads was performed on all cells and pathway analysis was performed.
By comparison with non-LPS-activated cells, LPS-activated pathways with p<10-15 were defined. […] NP001-treated, LPS-activated HSC gene expression pathways were evaluated in parallel. […] In addition, LPS-activated HSC were evaluated for factors (e.g., protein and genes), that were modulated following treatment with NP001.

Consider sodium chlorite [NP001], for which, in the assay on patients with ALS (setting [1]), the disease progression result was “slowing disease progression” and the innate immune function entry is given as “restore innate immune function”. In the assay on patients with ALS (setting [2]), the “plasma epidermal growth factor (EGF), long term change” value is reported as “upregulation”; the “plasma hepatocyte growth factor (HGF), long term change” value is recorded as “downregulation”; the “plasma interleukin-10 (IL-10), long term change” value is on record as “upregulation”; the “plasma interleukin-18 (IL-18), long term change” value was “downregulation”. In addition, in the assay with patients with ALS (setting [2]), the “plasma lipopolysaccharide (LPS), long term change” value is on record as “downregulation”; the “plasma lipopolysaccharide binding protein (LBP), long term change” value is “downregulation”; the “plasma neopterin, long term change” value is recorded as “upregulation”; the “plasma soluble CD163 (sCD163), long term change” value is recorded as “downregulation”. For the same substance, the “8 biomarkers associated with microbial translocation” value in the assay on patients with ALS (intermittent dosing (3 days/month), patients whose disease slowed) is reported as “prolonged regulation”. Also, in the assay on patients with ALS (setting [3]), the disease progression entry is “slowing disease progression” and the innate immune function entry is “restore innate immune function”. Further, the “HSC gene expression pathways stimulated by LPS” value in the assay with CD 34+ HSCs is given as “reversed”.
